We go through 17 compounds from patent publication US4707487A, “(4-imidazolyl)piperidines, the preparation thereof and their application in therapy” (Institut National de la Sante et de la Recherche Medicale …, priority 1985, dated 1987).

The nature of series [1]: Acute toxicity: mortality in mice after a single administration of increasing doses. Particulars: mouse, in vivo, after one hour. How it is done:
The determination of mortality in mice is observed folowing a single intravenous administration of increasing doses of compounds to be tested.
The L.D.50 for all the compounds studied is […] 100 mg/kg […]. For example, that for the derivative No. 1 is 100 mg/kg after one hour.

In series [2] the test system is rate of renewal of histamine in the synaptosomal fraction (P2) of rat cerebral cortex. Put plainly: Effects of H3 antagonists on the rate of renewal of cerebral histamine (depletion after synthesis blocking with α-FMH). Also on record: Depletion by α-FMH: unit not given beside the values. It is filed as in vivo, rat (male). How it is done:
III. EFFECTS OF H3 A[…] THE RATE OF RENEWAL OF CEREBRAL HISTAMINE
Male rats weighing from 80 to 100 g simultaneously receive intraperitoneally α-fluoromethyl histidine and the compound to be tested, each at a dose of 20 mg/kg. One hour later, the animals are sacrificed and the cerebral cortex rapidly removed and homogenized in 10 volumes of 0.32 M sucrose. The homogenate thereby obtained is subjected to two successive centrifugations, the first at 10^4 g.min and second at 2×10^5 g.min to sediment the fraction enriched in synaptosomes (Whittaker, Michaelson and Kirkland, Biochem. J., 1967, 90, 293-305). After resuspension of this fraction in 10 volumes of 20 mM phosphate (K2 /K) buffer, PH 7.8, and treatment with ultrasound, an aliquot portion is frozen for subsequent assay of histidine decarboxylase activity (Baudry, Martres and Schwartz, J. Neurochem., 21, 1301-1309, 1973), and another portion is heated for 10 minutes at 95° C. and then centrifuged at 10^4 g.min. The endogenous histamine is determined in the supernatant by a radioenzymatic assay, which enables the histamine to be converted to tritiated N^w methylhistamine by means of an enzyme purified from rat kidney, histamine N-methyltransferase, and a tritiated methyl radical donor, S-adenosylmethionine. The N^w -methylhistamine thereby formed is selectively extracted in an alkaline medium into chloroform, before measurement of the tritiated product by liquid scintillation (Taylor and Snyder, J. Pharmacol. Exp. Ther., 137, 619-633, 1971).
In the controls, these rates correspond to 15 ng/g/h, compared with approximately 30 ng/g/h after treatment with an H3 -receptor antagonist (Table 3).

The test system is the same in series [3]. The description is as above. Also on record: Depletion by α-FMH: unit not given beside the values. It is filed as in vivo, rat (male). The source holds these as a separate data set.
Series [4] addresses T1, H3 self-receptors of rat brain (Rattus norvegicus, UniProt Q9QYN8). Briefly: cell-based.
Excerpt: (§1) The method described by Arrang et al., (Nature 1983, 302: 838-837) is used on sections (0.3 mm thick) of cerebral cortex of male Wistar rats (180-200 g) (IFFA-CREDO, France).
For series [5], the target named is T1, H3 self-receptors of rat brain. Put plainly: Antagonism of histamine stimulation of the H3 receptors controlling the release of (3H)histamine induced by depolarization of sections of rat brain.
Excerpt: as §1
The mark [6] stands for this setting: α-FMH 20 mg/kg + test compound 20 mg/kg.
Setting [7] is: α-FMH 20 mg/kg + test compound 20 mg/kg, * p < 0.01 with respect to α-FMH alone.
Where [8] appears, read: α-FMH 20 mg/kg + test compound 20 mg/kg, where marked *** p < 0.05 with respect to α-FMH.
[9] abbreviates: α-FMH 20 mg/kg + test compound 2 mg/kg.
Where [10] appears, read: read-out: Apparent dissociation constant (Ki) as antagonist of histamine on the H3 self-receptors of rat brain.
Setting [11] is: α-FMH alone 20 mg/kg, i.p., 1 h, rat cerebral cortex.

T1 sequence (Q9QYN8 whole entry): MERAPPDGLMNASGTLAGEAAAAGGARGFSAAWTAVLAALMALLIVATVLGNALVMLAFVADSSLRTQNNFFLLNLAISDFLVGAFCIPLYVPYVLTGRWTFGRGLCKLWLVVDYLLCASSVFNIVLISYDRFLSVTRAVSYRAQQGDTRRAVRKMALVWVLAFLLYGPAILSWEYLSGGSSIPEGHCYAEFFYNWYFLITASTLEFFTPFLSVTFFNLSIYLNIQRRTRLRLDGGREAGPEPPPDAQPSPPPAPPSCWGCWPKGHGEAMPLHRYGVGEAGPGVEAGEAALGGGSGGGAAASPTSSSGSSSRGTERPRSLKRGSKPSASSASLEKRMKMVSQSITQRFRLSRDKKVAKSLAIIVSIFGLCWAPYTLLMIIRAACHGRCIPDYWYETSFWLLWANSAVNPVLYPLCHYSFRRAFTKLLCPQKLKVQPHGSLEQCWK

As for `S=C(NC1CCCCC1)N1CCC(c2c[nH]cn2)CC1` [Example 1], the LD50 (commonly the dose expected to kill half of the subjects tested) at 1 h in series [1] was determined as 100 mg/kg. Moreover, the “Depletion by α-FMH, change (in brackets)” value in series [2] (setting [6]) is on record as “+74%”; in series [3] (setting [9]) it was “+96%”. For the same compound, the “Histamine (level in the synaptosomal fraction P2)” value in series [2] (setting [7]) came out at 26.4 ± 1.4; in series [3] (test compound alone 20 mg/kg, no α-FMH, ** p < 0.03 with the untreated animals), 39.3 ± 2.1; in series [3] (α-FMH 20 mg/kg + test compound 2 mg/kg, * p < 0.01 with respect to α-FMH alone), 23.2 ± 2.7. The “Depletion by α-FMH” value is given as 25.2 ± 3.3 in series [2] (setting [8]); 12.3 ± 3.7 in series [3] (test compound alone 20 mg/kg, no α-FMH); 28.4 ± 4.0 in series [3] (setting [9]). In series [3] (administered alone at a dose of 20 mg/kg), the “histamine level in the synaptosomal fraction” value is given as “significant fall in the histamine level in the synaptosomal fraction”. The Ki in series [4] stood at 5 nM.

`O=C(NC1CCCCC1)N1CCC(c2cn(C(=O)NC3CCCCC3)cn2)CC1` [Example 2] gave a Ki in series [5] of 26 nM.

On to `O=C(NC1CCCCC1)N1CCC(c2c[nH]cn2)CC1` [Example 3], for which the “Depletion by α-FMH, change (in brackets)” value in series [2] (setting [6]) is reported as “+84%”. Besides, the “Histamine (level in the synaptosomal fraction P2)” value in series [2] (setting [7]) is 24.9 ± 1.2. In series [2] (setting [8]), the “Depletion by α-FMH” value was found to be 26.7 ± 3.2. Besides, the Ki in series [5] was determined as 41 nM.

In series [5], `O=C(c1ccc(N2CCC(c3c[nH]cn3)CC2)cc1)C1CC1` [Example 4] displayed a Ki of 37 nM.

As to `S=C(NC12CC3CC(CC(C3)C1)C2)N1CCC(c2c[nH]cn2)CC1` [Example 7], the Ki in series [4] was found to be 30 nM.

In the case of `O=C(Nc1ccccc1)N1CCC(c2c[nH]cn2)CC1` [Example 9], the Ki in series [4] is 170 nM.

In turn, `O=C(Nc1cccc(F)c1)N1CCC(c2c[nH]cn2)CC1` [Example 10] had a Ki in series [4] of 23 nM.

Consider `Cc1cccc(NC(=O)N2CCC(c3c[nH]cn3)CC2)c1` [Example 11], for which the Ki in series [4] was 52 nM.

The compound `Cc1cccc(NC(=O)N2CCC(c3cn(C(=O)Nc4cccc(C)c4)cn3)CC2)c1` [Example 16] yielded a Ki in series [4] of 84 nM.

`CC(NC(=O)N1CCC(c2cn(C(=O)NC(C)c3ccccc3)cn2)CC1)c1ccccc1` (stereo not shown) [Example 20] returned a Ki in series [4] of 22 nM.

On to `Cc1[nH]cnc1C1CCN(CCCn2c(=O)[nH]c3ccccc32)CC1` [Example 39], for which, in series [4], the Ki stood at 500 nM.

In the case of `c1ccc(OCCN2CCC(c3c[nH]cn3)CC2)cc1` [Example 40], the Ki in series [5] was determined as 67 nM.

`CC(NC(=O)N1CCC(c2c[nH]cn2)CC1)c1ccccc1` (stereo not shown) [Example 56] came in with a Ki in series [4] of 10 nM.

As for `CC(NC(=N)N1CCC(c2c[nH]cn2)CC1)C1CC1` (stereo not shown) [Example 57], in series [5] (setting [10]), the Ki turned out to be 12 nM.

With `S=C(NC1CCCCC1)N1CCCC(c2c[nH]cn2)C1` (stereo not shown) [Example 58], in series [5] (setting [10]), the Ki came to 40 nM.

With `NCCc1c[nH]cn1` [histamine, reference compound], in series [5] (read-out: inhibition of (3H)histamine release by exogenous histamine), the inhibition (usually the share of the control response that was lost under treatment) at 1 µM is ~60%.

`N[C@@](CF)(Cc1c[nH]cn1)C(=O)O` [α-FMH, α-fluoromethylhistidine, reference compound]: in series [2] (setting [11]), the “Depletion by α-FMH” value worked out at 14.5 ± 4.0 and the “Histamine (level in the synaptosomal fraction P2)” value is recorded as 37.1 ± 2.7.
